This passage reports IC50 results from US8987473B2, “Ring-fused compound” (Sato Pharmaceutical Co., Ltd., priority 2011, dated 2015).

human URAT1, sequence (Q96S37 whole entry): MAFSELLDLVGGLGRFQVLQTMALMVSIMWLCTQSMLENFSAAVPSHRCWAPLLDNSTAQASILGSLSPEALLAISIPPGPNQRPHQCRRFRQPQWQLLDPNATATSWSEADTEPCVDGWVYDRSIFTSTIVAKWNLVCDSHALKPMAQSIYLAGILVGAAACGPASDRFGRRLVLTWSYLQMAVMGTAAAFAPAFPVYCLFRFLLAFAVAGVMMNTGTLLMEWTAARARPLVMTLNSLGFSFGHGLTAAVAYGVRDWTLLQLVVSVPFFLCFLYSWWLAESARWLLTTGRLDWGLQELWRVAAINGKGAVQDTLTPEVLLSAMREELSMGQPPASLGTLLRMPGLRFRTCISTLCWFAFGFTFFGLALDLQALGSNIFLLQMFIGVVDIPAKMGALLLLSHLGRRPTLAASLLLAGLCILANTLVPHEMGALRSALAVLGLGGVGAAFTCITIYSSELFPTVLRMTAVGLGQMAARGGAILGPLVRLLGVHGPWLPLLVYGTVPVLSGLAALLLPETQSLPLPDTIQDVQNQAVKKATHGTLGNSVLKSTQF

The target in this experiment is human URAT1 (Homo sapiens (Human), UniProt Q96S37). Description: Test for uric acid transport inhibition using human URAT1 expression cell. The experiment is classed as cell-based. The note with it: human URAT1 stable expression CHO cell; 14C-labeled uric acid 38 μM final concentration; incorporation at room temperature for 5 minutes; 100% window defined with benzbromarone 100 μM; read-out: URAT1 Inhibitory Activity (IC50). As to the method:
In this Example, it was evaluated whether the Example compound has the URAT1 inhibitory activity.
Human URAT1 full-length cDNA was introduced to an expression vector pcDNA5/FRT/V5-His TOPO (registered trademark) (Invitrogen Corporation). The obtained expression plasmid was introduced to Chinese hamster ovary cell (hereinafter referred to as the CHO cell) by the liposome method using Lipofectamine LTX (Invitrogen), and cultured in a selection medium including hygromycin, whereby to prepare human URAT1 stable expression cell.
The human URAT1 expression CHO cell was cultured using D-MEM/F-12 (1:1) mixed medium including 10% bovine fetal serum and hygromycin at 37° C. in the presence of 5% CO2. The cells were seeded onto a 96 well plate (Corning Incorporated) in 0.8×10^5 cells/well, and after 24 hours, the test for uric acid transport inhibition below was performed.
The medium was removed by aspiration, and then the cells were washed once with an assay buffer including 125 mM of sodium gluconate, 4.8 mM of potassium gluconate, 1.2 mM of potassium dihydrogen phosphate, 1.2 mM of magnesium sulfate, 1.3 mM of calcium gluconate and 5.6 mM of glucose. 50 μL assay buffer including the test compound in various concentrations was added, and further 50 μL assay buffer including a radioactive ligand (uric acid labeled with ^14C; 38 μM final concentration) was added, and incorporation reaction was performed at room temperature for 5 minutes. Immediately after completion of the reaction, the reaction mixture was washed twice with 100 μL ice-cold assay buffer, and 100 μL of 0.1 N sodium hydroxide was added. The reaction mixture was stirred to lyse the cells, and 4 mL Hionic-Fluor (Packard BioScience CO) was added, and then the radioactivity was measured with a liquid scintillation counter (Beckman Coulter, Inc. and Packard BioScience CO).
The radioactivity when each concentration of the test compound was added (uric acid incorporation activity, %) was calculated in which the difference of the radioactivity when the test compound was not added (DMSO added), and the radioactivity when a positive control compound, benzbromarone (known URAT1 inhibitor) was added in 100 μM, was taken as 100%, and the concentration of the test compound when the uric acid incorporation activity was inhibited to 50% (IC50) was obtained.
Take `Cc1nn(Cc2c(Cl)cccc2Cl)c2cc(C(=O)CCC(=O)O)ccc12` [Example 130, 4-[1-(2,6-dichlorobenzyl)-3-methyl-1H-indazole-6-yl]-4-oxobutyric acid]: the IC50 was 68 nM.
Then `Cc1nn(Cc2c(Cl)cccc2Cl)c2cc(CCC(N)=O)ccc12` [Example 132, 3-[1-(2,6-dichlorobenzyl)-3-methyl-1H-indazole-6-yl]propionamide], with 186 nM; and `Cc1nn(Cc2c(Cl)cccc2Cl)c2cc(CCCC(=O)O)ccc12` [Example 133, 4-[1-(2,6-dichlorobenzyl)-3-methyl-1H-indazole-6-yl]butyric acid], with 16 nM.
With `Cc1nn(Cc2c(Cl)cccc2Cl)c2cc(Cc3nnn[nH]3)ccc12` [Example 134, 1-(2,6-dichlorobenzyl)-3-methyl-6-(1H-tetrazole-5-ylmethyl)-1H-indazole], the IC50 stood at 13 nM.
Turning to `Cc1nn(Cc2c(Cl)cccc2Cl)c2cc(CCc3nnn[nH]3)ccc12` [Example 135, 1-(2,6-dichlorobenzyl)-3-methyl-6-[2-(1H-tetrazole-5-yl)ethyl]-1H-indazole], the IC50 amounted to 23 nM.
Take `Cc1nn(Cc2c(Cl)cccc2Cl)c2cc(Cc3n[nH]c(=O)o3)ccc12` [Example 136, 5-{[1-(2,6-dichlorobenzyl)-3-methyl-1H-indazole-6-yl]methyl}-1,3,4-oxadiazol-2(3H)-one]: the IC50 was found to be 34 nM.
With `Cc1nn(Cc2c(Cl)cccc2Cl)c2cc(Cc3n[nH]c(=S)o3)ccc12` [Example 137, 5-{[1-(2,6-dichlorobenzyl)-3-methyl-1H-indazole-6-yl]methyl}-1,3,4-oxadiazol-2(3H)-thione], the IC50 came out at 10 nM.
In the case of `Cc1nn(Cc2c(Cl)cccc2Cl)c2cc(OCC(=O)O)ccc12` [Example 138, 2-[1-(2,6-dichlorobenzyl)-3-methyl-1H-indazole-6-yloxy]acetic acid], the IC50 was found to be 916 nM.
On to `Cc1nn(Cc2c(Cl)cccc2Cl)c2cc(CS(=O)(=O)O)ccc12` [Example 139, [1-(2,6-dichlorobenzyl)-3-methyl-1H-indazole-6-yl]methanesulfonic acid], for which the concentration for half-maximal inhibition (IC50) worked out at 653 nM.
Consider `CCc1nn(Cc2c(Cl)cccc2Cl)c2cc(CC(=O)O)ccc12` [Example 140, 2-[1-(2,6-dichlorobenzyl)-3-ethyl-1H-indazole-6-yl]acetic acid], for which the IC50 is 24 nM.
Then `CCc1nn(Cc2c(C)cccc2C)c2cc(CC(=O)O)ccc12` [Example 142, 2-[1-(2,6-dimethylbenzyl)-3-ethyl-1H-indazole-6-yl]acetic acid], with 50 nM; and `CCc1nn(Cc2c(C)cccc2C)c2cc(C(=O)O)ccc12` [Example 143, 1-(2,6-dimethylbenzyl)-3-ethyl-1H-indazole-6-carboxylic acid], with 35 nM; and `CCc1nn(Cc2c(Cl)cccc2Cl)c2cc(C(=O)O)ccc12` [Example 144, 1-(2,6-dichlorobenzyl)-3-ethyl-1H-indazole-6-carboxylic acid], with 42 nM.
`CCc1nn(Cc2c(Cl)cccc2Cl)c2cc(CCC(=O)O)ccc12` [Example 145, 3-[1-(2,6-dichlorobenzyl)-3-ethyl-1H-indazole-6-yl]propionic acid]: the IC50 came out at 26 nM.
Then `CCc1nn(Cc2c(Cl)cccc2Cl)c2cc(/C=C/C(=O)O)ccc12` [Example 146, (E)-3-[1-(2,6-dichlorobenzyl)-3-ethyl-1H-indazole-6-yl]acrylic acid], with 53 nM; and `Cc1cccc(C)c1Cn1nc(C(C)C)c2ccc(CC(=O)O)cc21` [Example 147, 2-[1-(2,6-dimethylbenzyl)-3-isopropyl-1H-indazole-6-yl]acetic acid], with 76 nM.
In the case of `O=C(O)Cc1ccc2c(C3CC3)nn(Cc3c(Cl)cccc3Cl)c2c1` [Example 148, 2-[3-cyclopropyl-1-(2,6-dichlorobenzyl)-1H-indazole-6-yl]acetic acid], the IC50 came to 49 nM.
In the case of `Cc1cccc(C)c1Cn1nc(Cl)c2ccc(C(=O)O)cc21` [Example 149, 3-chloro-1-(2,6-dimethylbenzyl)-1H-indazole-6-carboxylic acid], the IC50 amounted to 53 nM.
With `N#Cc1nn(Cc2c(Cl)cccc2Cl)c2cc(C(=O)O)ccc12` [Example 150, 3-cyano-1-(2,6-dichlorobenzyl)-1H-indazole-6-carboxylic acid], the IC50 came to 295 nM.
Consider `Cc1nn(Cc2c(Cl)cccc2Cl)c2nc(Cc3nnn[nH]3)ccc12` [Example 152, 1-(2,6-dichlorobenzyl)-3-methyl-6-(1H-tetrazole-5-ylmethyl)-1H-pyrazolo[3,4-b]pyridine], for which the IC50 was 184 nM.
For the molecule `Cc1nn(Cc2c(Cl)cccc2Cl)c2cc(C(=O)O)cnc12` [Example 153, 1-(2,6-dichlorobenzyl)-3-methyl-1H-pyrazolo[4,3-b]pyridine-6-carboxylic acid], the IC50 is 361 nM.
With `Cc1nn(Cc2c(Cl)cccc2Cl)c2cc(-c3nnn[nH]3)cnc12` [Example 156, 1-(2,6-dichlorobenzyl)-3-methyl-6-(1H-tetrazole-5-yl)-1H-pyrazolo[4,3-b]pyridine], the IC50 came out at 438 nM.
In the case of `Cc1nn(Cc2cccc(Cl)c2Cl)c2cc(-c3nnn[nH]3)cnc12` [Example 158, 1-(2,3-dichlorobenzyl)-3-methyl-6-(1H-tetrazole-5-yl)-1H-pyrazolo[4,3-b]pyridine], the half-maximal inhibitory concentration (IC50) is 292 nM.
As to `Cc1cccc(Cl)c1Cn1nc(C)c2ncc(-c3nnn[nH]3)cc21` [Example 160, 1-(2-chloro-6-methylbenzyl)-3-methyl-6-(1H-tetrazole-5-yl)-1H-pyrazolo[4,3-b]pyridine], the IC50 stood at 124 nM.
For `Cc1ccc(C)c(Cn2nc(C)c3ncc(-c4nnn[nH]4)cc32)c1` [Example 163, 1-(2,5-dimethylbenzyl)-3-methyl-6-(1H-tetrazole-5-yl)-1H-pyrazolo[4,3-b]pyridine], the IC50 was found to be 113 nM.
With `Cc1nn(Cc2c(Cl)cccc2C2CC2)c2cc(-c3nnn[nH]3)cnc12` [Example 164, 1-(2-chloro-6-cyclopropylbenzyl)-3-methyl-6-(1H-tetrazole-5-yl)-1H-pyrazolo[4,3-b]pyridine], the IC50 was 55 nM.
Then `CCc1nn(Cc2c(Cl)cccc2Cl)c2cc(C(=O)O)cnc12` [Example 167, 1-(2,6-dichlorobenzyl)-3-ethyl-1H-pyrazolo[4,3-b]pyridine-6-carboxylic acid], with 80 nM; and `CCc1nn(Cc2c(C)cccc2Cl)c2cc(C(=O)O)cnc12` [Example 170, 1-(2-chloro-6-methylbenzyl)-3-ethyl-1H-pyrazolo[4,3-b]pyridine-6-carboxylic acid], with 80 nM; and `CCc1nn(Cc2c(Cl)cccc2Cl)c2cc(-c3nnn[nH]3)cnc12` [Example 171, 1-(2,6-dichlorobenzyl)-3-ethyl-6-(1H-tetrazole-5-yl)-1H-pyrazolo[4,3-b]pyridine], with 52 nM.
Take `O=C(O)c1cnc2c(Cl)nn(Cc3c(Cl)cccc3Cl)c2c1` [Example 172, 3-chloro-1-(2,6-dichlorobenzyl)-1H-pyrazolo[4,3-b]pyridine-6-carboxylic acid]: the IC50 was found to be 162 nM.
In the case of `Cc1cccc(Cl)c1Cn1nc(Cl)c2ncc(C(=O)O)cc21` [Example 174, 3-chloro-1-(2-chloro-6-methylbenzyl)-1H-pyrazolo[4,3-b]pyridine-6-carboxylic acid], the half-inhibitory concentration (IC50) was found to be 148 nM.
Then `Clc1cccc(Cl)c1Cn1nc(Cl)c2ncc(-c3nnn[nH]3)cc21` [Example 175, 3-chloro-1-(2,6-dichlorobenzyl)-6-(1H-tetrazole-5-yl)-1H-pyrazolo[4,3-b]pyridine], with 163 nM; and `Cc1cccc(Cl)c1Cn1nc(Cl)c2ncc(-c3nnn[nH]3)cc21` [Example 177, 3-chloro-1-(2-chloro-6-methylbenzyl)-6-(1H-tetrazole-5-yl)-1H-pyrazolo[4,3-b]pyridine], with 104 nM.
For `CCc1nn(Cc2c(Cl)cccc2Cl)c2cc(-c3nnn[nH]3)ccc12` [Example 182, 1-(2,6-dichlorobenzyl)-3-ethyl-6-(1H-tetrazole-5-yl)-1H-indazole], the IC50 came out at 52 nM.
Regarding `Cc1nn(Cc2c(Cl)cccc2Cl)c2cc(C(F)(F)C(=O)O)ccc12` [Example 183, [1-(2,6-dichlorobenzyl)-3-methyl-1H-indazole-6-yl]difluoroacetic acid], the IC50 came to 15 nM.
Turning to `Cc1nn(Cc2c(Cl)cccc2C2CC2)c2cc(CCC(=O)O)ccc12` [Example 185, 3-[1-(2-chloro-6-cyclopropylbenzyl)-3-methyl-1H-indazole-6-yl]propionic acid], the IC50 is 17 nM.
